# Source: ChEMBL document CHEMBL3137667, “[Drug-induced liver injury; fourteenth updated edition of the bibliographic database of liver injuries and related drugs]” (Gastroenterol Clin Biol, 2004)
# Legend:
# [1] = human
# [2] = human, serum
# [3] = human, serum, 4383 h
# [4] = Times to onset, minimal and maximal, observed in the indexed observations. [column 'DELAI' in source]; conditions: human
# [5] = human; remark: listed apart in the source
# [6] = Highest frequency of moderate liver toxicity observed during clinical trials, expressed as a percentage. [column '% BIOL' in source]; conditions: human
# [7] = human; remark: listed apart in the source
# [8] = Highest frequency of acute liver toxicity observed during clinical trials, expressed as a percentage. [column '% AIGUE' in source]; conditions: human
# [9] = human; remark: listed apart in the source
# [10] = human, serum; remark: listed apart in the source
# [11] = human; remark: listed apart in the source
# [12] = human; remark: listed apart in the source
# [13] = human; remark: listed apart in the source
# [14] = human; remark: listed apart in the source
# [15] = human; remark: listed apart in the source
# 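Wherever Hepatotoxicity (association with vascular disease) is given: count of indexed literature references reporting vascular liver injury in humans, e.g. peliosis hepatitis, hepatic veno-occlusive disease or Budd-Chiari syndrome.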
# 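Wherever Hepatotoxicity (benign tumour) is given: value is a count of indexed literature references citing a benign tumour confirmed by histopathology.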
# 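Wherever Hepatotoxicity (choleostasis) is given: human cholestatic liver injury, shown by histopathology or by peak ALT or AST elevation over alkaline phosphatase ratio below 2, value counts indexed literature reports.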
# 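Wherever Hepatotoxicity (chronic liver disease) is given: chronic liver injury confirmed by histopathology or persistently raised serum aminotransferase activity beyond 6 months, value given as the count of indexed literature references.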
# 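Wherever Hepatotoxicity (cirrhosis) is given: value is a count of indexed literature references reporting cirrhosis confirmed by histopathology.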
# 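Wherever Hepatotoxicity (cytolytic) is given: human cytolytic liver injury, shown by histopathology or by a ratio above 5 of peak ALT or AST elevation to alkaline phosphatase elevation, value counts indexed references.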
# 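Wherever Hepatotoxicity (granulomatous hepatitis) is given: value is a count of indexed literature references reporting granulomatous liver disease confirmed by histopathology.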
# 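Wherever Hepatotoxicity (malignant tumour) is given: malignant tumour confirmed by histopathology, value gives the count of indexed literature references reporting it.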
# 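Wherever Hepatotoxicity (severe hepatitis) is given: human clinical data: severe hepatitis, meaning potentially life-threatening liver failure or clinically observed cases, the value counts how many indexed literature references report it.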
# 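Wherever Hepatotoxicity (steatosis) is given: steatosis confirmed by histopathology, value is the count of indexed references.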
SMILES,Hepatotoxicity (severe hepatitis) [1],Hepatotoxicity (moderate) [2],Hepatotoxicity (chronic liver disease) [3],Hepatotoxicity (time to onset) [4],Hepatotoxicity (benign tumour) [5],Hepatotoxicity (moderate) [6] [%],Hepatotoxicity (cytolytic) [7],Hepatotoxicity (acute) [8] [%],Hepatotoxicity (malignant tumour) [9],Hepatotoxicity (acute) [10],Hepatotoxicity (granulomatous hepatitis) [11],Hepatotoxicity (association with vascular disease) [12],Hepatotoxicity (steatosis) [13],Hepatotoxicity (choleostasis) [14],Hepatotoxicity (cirrhosis) [15],further results
Cc1cc(O)c(C(=O)N[C@@H](C(=O)N[C@@H]2C(=O)N3C(C(=O)O)=C(CSc4nnnn4C)CS[C@H]23)c2ccc(O)cc2)cn1 [CEFPIRAMIDE],0,5,0,1 month,0,10,1,0,0,1,0,0,0,0,0,
NC[C@H]1O[C@H](O[C@H]2[C@H](O)[C@@H](O[C@H]3O[C@H](CO)[C@@H](O)[C@H](N)[C@H]3O)[C@H](N)C[C@@H]2N)[C@H](N)C[C@@H]1O [TOBRAMYCIN],0,12,0,1 day - 3 weeks,0,23.5,0,0,0,1,0,0,0,0,0,
CC(C)=CCN1CC[C@]2(C)c3cc(O)ccc3C[C@H]1[C@H]2C [(+)-PENTAZOCINE],0,0,0,< 3 months,0,0,0,0,0,2,0,0,0,0,0,
CCCCC1C(=O)NN(c2ccccc2)C1=O (stereo not given) [MOFEBUTAZONE],0,0,0,2 years,0,0,1,0,0,1,0,0,0,0,1,
Cc1ccccc1N1C(=O)c2cc(S(N)(=O)=O)c(Cl)cc2NC1C (stereo not given) [METOLAZONE],1,0,0,8 days - 3 months,0,0,0,0,0,2,1,0,0,1,0,
COc1cc(N)c(Cl)cc1C(=O)NC1CCN(CCCOc2ccc(F)cc2)CC1OC (stereo not given) [CISAPRIDE],0,2,0,4 days,0,0,1,0,0,1,0,0,0,0,0,
CN1C(=O)CC(=O)N(c2ccccc2)c2cc(Cl)ccc21 [CLOBAZAM],0,1,0,1 week,0,2.1,0,0,0,0,0,0,0,0,0,
COc1cc2oc(=O)c(C)c(C)c2cc1OCCCN1CCN(c2ccccc2OC)CC1 [ENSACULIN],0,1,0,2 weeks,0,8.3,0,0,0,0,0,0,0,0,0,
NS(=O)(=O)c1cc(C(=O)O)cc(N2CCCC2)c1Oc1ccccc1 [PIRETANIDE],0,0,0,3 weeks,0,0,1,0,0,1,0,0,0,0,0,
CC(=O)O[C@H]1C(=O)[C@@]2(C)[C@H]([C@H](OC(=O)c3ccccc3)[C@]3(O)C[C@H](OC(=O)[C@H](O)[C@@H](NC(=O)c4ccccc4)c4ccccc4)C(C)=C1C3(C)C)[C@]1(OC(C)=O)CO[C@@H]1C[C@@H]2O [PACLITAXEL],,7,0,1 days,0,,,,0,5,,0,0,,0,Hepatotoxicity (severe hepatitis) ([1]; Liver): 0; Hepatotoxicity (moderate) ([6]; Liver): 50%; Hepatotoxicity (cytolytic) ([7]; Liver): 3; Hepatotoxicity (acute) ([8]; Liver): 6%; Hepatotoxicity (granulomatous hepatitis) ([11]; Liver): 0; Hepatotoxicity (choleostasis) ([14]; Liver): 0
CCc1oc2ccccc2c1C(=O)c1cc(I)c(O)c(I)c1 [BENZIODARONE],0,0,0,1 month - 4 months,0,0,0,0,0,3,0,0,0,3,0,
